The values that follow come from US20230038929A1, “Fused Tricyclic Heterocyclic Compounds and Uses Thereof” (Verge Analytics, Inc., priority 2019, published 2023).

Bounds are passed on as bounds.

Assay [1] has as its target T1, Full length human recombinant PIKFYVE (Homo sapiens, UniProt Q9Y2I7, L932S/Q1183K/Q995L/S1033A/S696N/T998S).
T1 construct: Full length human recombinant PIKFYVE; purchased Carna Biosciences (Kobe, Japan); host or cells: baculovirus expression system (insect cells)
Description: Inhibition of PIKfyve (microfluidic electrophoresis kinase assay). Type of assay: biochemical. Conditions: 2 nM enzyme, 1 μM PI3P, 3 h at room temperature, 12 concentrations; read-out: PIKfyve IC50. The method in brief: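 GST-tagged full-length human PIKfyve (2 nM, baculovirus) with 1 μM fluorescent PI3P/PS substrate and […] in HEPES pH 7.5, Mg2+/Mn2+, 1% DMSO, 3 h at room temperature; 12 compound concentrations. PI(3,5)P product/substrate peaks resolved by microfluidic electrophoresis; IC50 from four-parameter fit of %-inhibition.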

The target in the next assay is T2, PI3Kα (p110α/p85α) (Homo sapiens, UniProt P42336).
T2 construct: Full-length N-terminal; FLAG (N); host or cells: SF9 cells (baculovirus)
Type of assay: biochemical. Conditions: 0.5 nM enzyme, ATP 90 μM, 1 μM PIP2, 3 h room temperature; read-out: PI3Kα IC50.

The next assay concerns the target T3, PI3Kβ (p110β/p85α) (Homo sapiens, UniProt P42338).
T3 construct: Full-length N-terminal GST-; GST (N); host or cells: SF9 cells (baculovirus)
Type of assay: biochemical. Particulars: 1 nM enzyme, ATP 60 μM, 1 μM PIP2, 3 h room temperature; read-out: PI3Kβ IC50.

The target of another assay is T4, PI3Kδ (p110δ/p85α) (Homo sapiens, UniProt O00329).
T4 construct: Full-length N-terminal GST-; GST (N); host or cells: SF9 cells (baculovirus)
Type of assay: biochemical. Conditions: 0.25 nM enzyme, ATP 90 μM, 1 μM PIP2, 3 h room temperature; read-out: PI3Kδ IC50.

The next assay concerns IPSC-C9 motor neurons. The experiment in a line: iPSC MN Survival assay (IPSC-C9). Type of assay: cell-based, human. Conditions: maximal reduction in hazard ratio vs control at various concentrations; <1.0 increased survival, >1.0 decreased survival.
For assay [2], the system named is ALS patient (SOD1 A4V) iPSC derived motor neurons. Description: iPSC MN Survival assay (IPSC-SOD1). Type of assay: cell-based, human. Conditions: nutrient deprived media (HBSS), six days, maximal reduction in hazard ratio, <1.0 increased survival. The protocol:
Biological Example 4: iPSC MN Survival assay
Fibroblasts from ALS patients with known SOD1 A4V mutation were reprogrammed into inducible pluripotent stem cells (iPSC) and then differentiated to motor neurons. In culture, ALS patient derived motor neurons show increased death rate compared to motor neurons derived from healthy individuals in a stressed condition (nutrient deprived media, Hank's buffered salt solution—HBSS). […] Cell rescue was measured following more than two different concentrations of each compound for six days with greater than four replicates in a 96-well format to ensure studies with power >0.8. Cells are transduced with a GFP reporter and imaged once a day to track survival. A broad-spectrum caspase inhibitor served as the positive control.
Microscopy image-based readout: Cells are transduced with a GFP reporter and imaged once a day with a blue laser to track survival. Imagers used include the Biotek Cytation 5 and Thermo Fisher EVOS Auto FL 2. All Images undergo uniform processing consisting of rolling hat background subtraction and contrast adjustment. Microscopy images are analyzed using software proprietary to Verge. Cells are identified by their shape and each cell is tracked across images and time points for each well. Survival is visually assessed from the Kaplan-Meier curves. Survival of the cells is modeled and tested using a mixed effects Cox regression where each well is modeled as the random effect, and the group (control/treatment) as the fixed effect. […]. Data are presented in Table 7 as the maximal reduction in hazard ratio scores measured at various concentrations.

T2 sequence (P42336 whole entry): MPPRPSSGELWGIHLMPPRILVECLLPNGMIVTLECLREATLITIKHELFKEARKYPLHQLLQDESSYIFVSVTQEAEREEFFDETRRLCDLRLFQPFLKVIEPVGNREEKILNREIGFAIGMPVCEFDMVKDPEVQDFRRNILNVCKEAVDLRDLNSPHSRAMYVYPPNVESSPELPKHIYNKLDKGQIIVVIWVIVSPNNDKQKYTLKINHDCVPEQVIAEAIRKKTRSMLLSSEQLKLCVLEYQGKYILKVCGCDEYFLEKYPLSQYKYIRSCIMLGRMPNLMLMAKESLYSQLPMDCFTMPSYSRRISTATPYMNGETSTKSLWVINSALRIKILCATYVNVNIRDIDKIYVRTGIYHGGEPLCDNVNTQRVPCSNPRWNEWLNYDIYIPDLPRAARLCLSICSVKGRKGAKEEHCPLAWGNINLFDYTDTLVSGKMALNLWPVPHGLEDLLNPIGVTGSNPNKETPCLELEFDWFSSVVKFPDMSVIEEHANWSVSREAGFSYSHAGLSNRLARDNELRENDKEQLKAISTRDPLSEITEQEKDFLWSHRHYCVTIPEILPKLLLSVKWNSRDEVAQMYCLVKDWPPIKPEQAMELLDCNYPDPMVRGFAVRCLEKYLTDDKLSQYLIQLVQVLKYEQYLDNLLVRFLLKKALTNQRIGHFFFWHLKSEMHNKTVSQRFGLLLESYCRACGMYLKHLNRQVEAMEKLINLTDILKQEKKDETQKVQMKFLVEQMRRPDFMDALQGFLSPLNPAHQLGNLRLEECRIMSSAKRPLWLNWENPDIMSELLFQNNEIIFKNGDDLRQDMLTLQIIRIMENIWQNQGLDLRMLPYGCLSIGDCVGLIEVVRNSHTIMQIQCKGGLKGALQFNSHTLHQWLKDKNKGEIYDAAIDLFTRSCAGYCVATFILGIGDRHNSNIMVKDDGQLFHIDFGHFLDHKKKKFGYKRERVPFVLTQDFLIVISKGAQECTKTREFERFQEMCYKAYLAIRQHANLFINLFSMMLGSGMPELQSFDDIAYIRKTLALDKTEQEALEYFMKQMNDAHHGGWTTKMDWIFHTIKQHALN
T2 sequence (P27986 whole entry, further chain): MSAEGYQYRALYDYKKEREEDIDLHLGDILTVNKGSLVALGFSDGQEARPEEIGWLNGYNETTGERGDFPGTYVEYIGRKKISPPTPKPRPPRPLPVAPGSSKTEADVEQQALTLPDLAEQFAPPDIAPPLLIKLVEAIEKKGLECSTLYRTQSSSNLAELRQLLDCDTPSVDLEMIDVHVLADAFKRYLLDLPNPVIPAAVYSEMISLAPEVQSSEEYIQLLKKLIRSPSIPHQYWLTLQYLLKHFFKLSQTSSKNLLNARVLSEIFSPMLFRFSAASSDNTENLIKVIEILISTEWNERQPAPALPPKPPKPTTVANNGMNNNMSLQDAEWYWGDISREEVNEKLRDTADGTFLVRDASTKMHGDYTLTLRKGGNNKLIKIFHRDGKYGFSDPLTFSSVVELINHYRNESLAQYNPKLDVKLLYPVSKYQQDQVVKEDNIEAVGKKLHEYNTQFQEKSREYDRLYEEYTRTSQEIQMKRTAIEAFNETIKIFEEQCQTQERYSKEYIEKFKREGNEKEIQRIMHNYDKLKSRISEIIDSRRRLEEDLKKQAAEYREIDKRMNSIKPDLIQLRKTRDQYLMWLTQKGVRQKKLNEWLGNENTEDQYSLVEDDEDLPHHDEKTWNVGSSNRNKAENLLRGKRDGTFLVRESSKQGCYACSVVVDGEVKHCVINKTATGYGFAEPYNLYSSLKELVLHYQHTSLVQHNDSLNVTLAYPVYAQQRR
T4 sequence (O00329 whole entry): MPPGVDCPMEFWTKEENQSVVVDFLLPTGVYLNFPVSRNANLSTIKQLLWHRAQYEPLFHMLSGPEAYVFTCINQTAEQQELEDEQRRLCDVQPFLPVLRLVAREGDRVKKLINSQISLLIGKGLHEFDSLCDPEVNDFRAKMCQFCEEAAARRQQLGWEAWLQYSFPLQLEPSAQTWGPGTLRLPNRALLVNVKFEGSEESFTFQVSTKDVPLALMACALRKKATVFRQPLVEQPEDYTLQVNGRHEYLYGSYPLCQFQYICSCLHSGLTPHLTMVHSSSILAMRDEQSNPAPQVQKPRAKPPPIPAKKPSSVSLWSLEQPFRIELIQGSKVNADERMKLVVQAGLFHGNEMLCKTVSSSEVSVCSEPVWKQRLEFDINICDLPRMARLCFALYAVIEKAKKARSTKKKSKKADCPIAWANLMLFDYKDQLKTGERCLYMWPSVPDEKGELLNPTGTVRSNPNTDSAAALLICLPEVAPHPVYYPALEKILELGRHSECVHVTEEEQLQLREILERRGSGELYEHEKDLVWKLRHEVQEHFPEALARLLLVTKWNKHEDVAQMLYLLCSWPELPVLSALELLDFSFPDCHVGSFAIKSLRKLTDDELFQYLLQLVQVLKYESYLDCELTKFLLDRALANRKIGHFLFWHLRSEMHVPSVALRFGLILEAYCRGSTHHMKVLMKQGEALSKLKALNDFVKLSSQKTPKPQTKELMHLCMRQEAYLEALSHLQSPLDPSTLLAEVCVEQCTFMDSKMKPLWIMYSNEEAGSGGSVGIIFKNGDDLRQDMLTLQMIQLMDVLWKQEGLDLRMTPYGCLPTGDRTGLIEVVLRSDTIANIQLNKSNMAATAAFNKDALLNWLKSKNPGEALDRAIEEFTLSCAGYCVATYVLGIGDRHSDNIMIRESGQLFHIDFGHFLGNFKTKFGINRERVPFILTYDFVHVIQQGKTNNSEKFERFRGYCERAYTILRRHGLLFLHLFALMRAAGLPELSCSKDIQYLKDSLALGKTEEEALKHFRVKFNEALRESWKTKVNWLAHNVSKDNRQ
T4 sequence (P27986 whole entry, further chain): as the sequence (P27986 whole entry, further chain) above
T3 sequence (P42338 whole entry): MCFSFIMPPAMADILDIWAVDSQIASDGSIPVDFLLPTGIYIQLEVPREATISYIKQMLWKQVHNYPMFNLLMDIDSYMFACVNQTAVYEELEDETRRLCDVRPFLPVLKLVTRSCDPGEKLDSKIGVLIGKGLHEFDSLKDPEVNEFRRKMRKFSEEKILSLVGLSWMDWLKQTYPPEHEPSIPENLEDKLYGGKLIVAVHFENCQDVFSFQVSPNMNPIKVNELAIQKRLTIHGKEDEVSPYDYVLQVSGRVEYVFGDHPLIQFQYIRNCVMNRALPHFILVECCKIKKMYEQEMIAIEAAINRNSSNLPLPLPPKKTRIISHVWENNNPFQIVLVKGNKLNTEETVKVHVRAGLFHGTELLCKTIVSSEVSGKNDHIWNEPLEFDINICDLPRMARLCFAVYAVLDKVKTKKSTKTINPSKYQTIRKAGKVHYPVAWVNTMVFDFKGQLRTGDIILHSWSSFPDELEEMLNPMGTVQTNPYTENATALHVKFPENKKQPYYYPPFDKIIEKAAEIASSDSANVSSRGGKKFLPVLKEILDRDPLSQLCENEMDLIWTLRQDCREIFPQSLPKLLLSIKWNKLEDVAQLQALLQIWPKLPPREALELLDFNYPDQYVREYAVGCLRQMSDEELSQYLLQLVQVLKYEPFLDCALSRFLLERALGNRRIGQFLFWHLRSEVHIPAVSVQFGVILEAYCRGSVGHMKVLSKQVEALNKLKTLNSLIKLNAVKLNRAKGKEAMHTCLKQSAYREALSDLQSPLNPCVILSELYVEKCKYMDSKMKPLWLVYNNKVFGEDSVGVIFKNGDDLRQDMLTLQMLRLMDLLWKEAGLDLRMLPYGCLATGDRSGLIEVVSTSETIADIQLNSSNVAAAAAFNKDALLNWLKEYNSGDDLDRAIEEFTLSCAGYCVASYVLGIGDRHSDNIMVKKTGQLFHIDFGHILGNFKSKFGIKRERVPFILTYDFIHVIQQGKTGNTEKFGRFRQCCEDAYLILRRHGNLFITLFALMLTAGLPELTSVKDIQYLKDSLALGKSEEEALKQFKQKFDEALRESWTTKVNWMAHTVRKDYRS
T3 sequence (P27986 whole entry, further chain): as the sequence (P27986 whole entry, further chain) above

For `c1ccc(Nc2nc(N3CCOCC3)c3oc4ncccc4c3n2)cc1` [Example 37, 4-morpholino-N-phenylpyrido[3′,2′:4,5]furo[3,2-d]pyrimidin-2-amine], the IC50 in assay [1] stood at 439 nM; on PI3Kα (p110α/p85α), 67 nM; at PI3Kβ (p110β/p85α), 1040 nM; on PI3Kδ (p110δ/p85α), 41 nM. Besides, the “IPSC-C9 (Hazard Ratio)” value in the assay on IPSC-C9 motor neurons is on record as 0.99. In assay [2], the “IPSC-SOD1 (Hazard Ratio)” value is 1.03.

Regarding `c1ccc(-c2cc(Nc3nc(N4CCOCC4)c4oc5ncccc5c4n3)[nH]n2)cc1` [Example 9, 4-Morpholino-N-(3-phenyl-1H-pyrazol-5-yl)pyrido[3′,2′:4,5]furo[3,2-d]pyrimidin-2-amine], the IC50 in assay [1] is 23 nM; on PI3Kα (p110α/p85α), 144 nM; at PI3Kβ (p110β/p85α), more than 10000 nM; on PI3Kδ (p110δ/p85α), 75 nM. In addition, the “IPSC-C9 (Hazard Ratio)” value in the assay on IPSC-C9 motor neurons is listed as 0.65. Besides, the “IPSC-SOD1 (Hazard Ratio)” value in assay [2] is listed as 0.81.

Turning to `c1ccc(-c2cc(Nc3nc(N4CCOCC4)c4oc5ncc(CCN6CCCC6)cc5c4n3)[nH]n2)cc1` [Example 14, 4-Morpholino-N-(3-phenyl-1H-pyrazol-5-yl)-8-(2-(pyrrolidin-1-yl)ethyl)pyrido[3′,2′:4,5]furo[3,2-d]pyrimidin-2-amine], the IC50 in assay [1] turned out to be 2320 nM. Besides, the “IPSC-C9 (Hazard Ratio)” value in the assay on IPSC-C9 motor neurons amounted to 0.9. Moreover, in assay [2], the “IPSC-SOD1 (Hazard Ratio)” value came to 0.96.

As for `c1cnc2oc3c(N4CCOCC4)nc(Nc4cc(-c5ccncc5)n[nH]4)nc3c2c1` [Example 10, 4-Morpholino-N-(3-(pyridin-4-yl)-1H-pyrazol-5-yl)pyrido[3′,2′:4,5]furo[3,2-d]pyrimidin-2-amine], the IC50 was determined as 185 nM in assay [1], 117 nM on PI3Kα (p110α/p85α), 1310 nM on PI3Kβ (p110β/p85α) and 37 nM on PI3Kδ (p110δ/p85α). The “IPSC-C9 (Hazard Ratio)” value in the assay on IPSC-C9 motor neurons was 0.96. In assay [2], the “IPSC-SOD1 (Hazard Ratio)” value worked out at 1.04.

For `Cc1cc(N(C)c2nc(N3CCOCC3)c3oc4ncccc4c3n2)nn1C` [Example 11, N-(1,5-Dimethyl-1H-pyrazol-3-yl)-N-methyl-4-morpholinopyrido[3′,2′:4,5]furo[3,2-d]pyrimidin-2-amine], the IC50 in assay [1] is more than 10000 nM; on PI3Kα (p110α/p85α) it was 244 nM; at PI3Kβ (p110β/p85α) it was 7030 nM; at PI3Kδ (p110δ/p85α), 278 nM. In addition, the “IPSC-C9 (Hazard Ratio)” value in the assay with IPSC-C9 motor neurons was determined as 0.99. Further, the “IPSC-SOD1 (Hazard Ratio)” value in assay [2] worked out at 1.1.
